The test system of the series is rat chronic carcinogenicity bioassay, TD50. The experiment in a line: DSSTox (CPDBAS) Carcinogenic Potency Database Summary Rat Bioassay Results. The note with it: for Potency: stronger effect = lower value. In outline:
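Chronic long-term rat cancer bioassays from literature and NCI/NTP, taking the most positive result per sex. TD50 in mmol converted to a 1–100 Activity Score from log10(1/TD50). Mixtures lacking TD50 scored 50.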

The mark [1] stands for this setting: TD50_Rat_Note: no positive results, TargetSites_Rat_Female: no positive results.
Setting [2] is: TD50_Rat_Note: TD50 is harmonic mean of more than one positive test, TargetSites_Rat_Female: liver.
[3] abbreviates: TD50_Rat_Note: TD50 is harmonic mean of more than one positive test, TargetSites_Rat_Female: stomach.
Where [4] appears, read: TD50_Rat_Note: no positive results.

Active and inactive are the calls of the source.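 How the source made its calls: active means at least one rat sex group has a carcinogenic potency value and tumor site recorded; inconclusive means only rat studies were judged inadequate by the national testing program; inactive means no potency or tumor site, with negative rat experiments.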

Take `CCn1cc(C(=O)O)c(=O)c2ccc(C)nc21`: the Potency (TD50_Rat_Note: TD50 is harmonic mean of more than one positive test, TargetSites_Rat_Female: clitoral gland) is 201 mg/kg/day.

Consider `Nc1cc([N+](=O)[O-])ccc1O`, for which the Potency (TargetSites_Rat_Female: no positive results) is 839 mg/kg/day.

As for `[N-]=[N+]=CC(=O)OC[C@H](N)C(=O)O`, the Potency (TD50_Rat_Note: positive test results only by intraperitoneal or intravenous injection, TargetSites_Rat_BothSexes: pancreas) was 0.793 mg/kg/day.

As to `Cc1[nH]cnc1CSCCN=C(NC#N)N(C)N=O`, the outcome under setting [1] was “inactive; no positive results”.

For `O.O.O.O.O.O.O=S(=O)([O-])[O-].[Ni+2]`, under setting [1], the outcome is “inactive; no positive results”.

For `Cn1cc(OCC(O)CNC(C)(C)C)c2ccccc2c1=O` (centres undefined), the outcome under setting [1] was “inactive; no positive results”.

As to `ClC1=C(Cl)[C@]2(Cl)[C@@H]3[C@H]4C=CC(C4)[C@@H]3C1(Cl)C2(Cl)Cl`, the outcome under setting [1] is “inactive; no positive results”.

For the compound `CCCN(CCC)S(=O)(=O)c1ccc(C(=O)O)cc1`, the outcome under setting [1] was “inactive; no positive results”.

Consider `CC(O)CN(CCO)N=O` (centres undefined), for which, where the note is “TargetSites_Rat_Female: esophagus, liver, vascular system”, the Potency was 1.02 mg/kg/day.

For `c1ccc2[nH]c(-c3cscn3)nc2c1`, the outcome under setting [1] is “inactive; no positive results”.

With `CC(C)N=[N+]([O-])C(C)C`, the Potency was 0.00268 mg/kg/day.

Regarding `Cc1ccc(N=Nc2c(O)c(S(=O)(=O)O)cc3ccc(S(=O)(=O)O)cc23)c(C)c1`, where the note is “TD50_Rat_Note: TD50 value less than the reported upper confidence limit, TD50 is harmonic mean of more than one positive test, harmonic, TargetSites_Rat_Female: liver”, the Potency was 415 mg/kg/day.

With `O=NO`, the Potency (TD50_Rat_Note: TD50 is harmonic mean of more than one positive test, TargetSites_Rat_Female: liver, TargetSites_Rat_BothSexes: hematopoietic system) is 167 mg/kg/day.

Take `O=NN1CCC(=O)NC1=O`: the Potency under setting [2] is 0.0983 mg/kg/day.

Consider `N=c1ccn2c(n1)O[C@H]1[C@H](O)[C@@H](CO)O[C@H]12`, for which the outcome under setting [1] is “inactive; no positive results”.

Turning to `NNC(N)=S`, under setting [1], the result was inactive.

Consider `CCCCNC(N)=O`, for which the outcome under setting [1] was “inactive; no positive results”.

In the case of `ClC(Cl)C(Cl)Cl`, the outcome under setting [1] is “inactive; no positive results”.

For `CCC(Cl)CCC(Cl)C(Cl)CC(Cl)C(Cl)C(Cl)CCl` (centres undefined), where the note is “TD50_Rat_Note: TD50 is harmonic mean of more than one positive test, TD50_Rat_mmol was not calculated for this mixture, but Activiity S, TargetSites_Rat_Female: liver, thyroid gland”, the Potency was 222 mg/kg/day.

For the compound `O=NN1CC=CCC1`, where the note is “TD50_Rat_Note: TD50 is harmonic mean of more than one positive test, harmonic mean of TD50 includes a value for upper 99% confidence li, TargetSites_Rat_Female: esophagus, liver, stomach, vascular system”, the Potency was 0.0601 mg/kg/day.

Take `O=NN1CCCCCCC1`: the Potency (TD50_Rat_Note: TD50 is harmonic mean of more than one positive test) was 0.0378 mg/kg/day.

As to `ClC(Cl)=C(c1ccc(Cl)cc1)c1ccc(Cl)cc1`, the outcome under setting [1] is “inactive; no positive results”.

With `O=P1(NCCCl)OCCCN1CCCl` (centres undefined), for the setting “TD50_Rat_Note: positive test results only by intraperitoneal or intravenous injection, TargetSites_Rat_Female: uterus”, the Potency was 0.739 mg/kg/day.

Take `CC(O)CN(N=O)C(=O)NCCCl` (centres undefined): the Potency under setting [2] was 0.873 mg/kg/day.

`CC(C)NCC(O)c1ccc(NS(C)(=O)=O)cc1` (centres undefined): under setting [1], the outcome is “inactive; no positive results”.

Take `CC1=CC(C)(C)N(N=O)c2ccccc21`: the Potency (TD50_Rat_Note: positive test results only by intraperitoneal or intravenous injection, TD50_Rat_mmol was not calculated for this mixtur) is 3.31 mg/kg/day.

Take `O=C(O)[C@@H]1[C@H](C(=O)O)[C@@]2(Cl)C(Cl)=C(Cl)[C@]1(Cl)C2(Cl)Cl`: under setting [2], the Potency was 40.8 mg/kg/day.

With `CC(C)C=O`, the outcome under setting [1] is “inactive; no positive results”.

Consider `C/C=C1/C[C@@H](C)[C@@](C)(O)C(=O)OC/C2=C/CN(C)CC[C@@H](OC1=O)C2=O`, for which the Potency (TD50_Rat_Note: positive test results only by intraperitoneal or intravenous injection) was 1.7 mg/kg/day.

With `[CH3][Hg][Cl]`, the outcome under setting [1] is “inactive; no positive results”.

Take `c1cc(OCC2CO2)cc(OCC2CO2)c1` (centres undefined): the Potency under setting [3] is 3.78 mg/kg/day.

Consider `CCCN(CCC)N=O`, for which the Potency (TargetSites_Rat_Female: esophagus, liver, nasal cavity) is 0.186 mg/kg/day.

Consider `CCN(N=O)C(=O)NCCO`, for which the Potency (TD50_Rat_Note: TD50 is harmonic mean of more than one positive test, TargetSites_Rat_Female: mammary gland, skin, uterus) was 0.522 mg/kg/day.

Take `Cc1cnc(NC(=O)C2=C(O)c3ccccc3S(=O)(=O)N2C)s1`: under setting [1], the outcome is “inactive; no positive results”.

In the case of `Nc1cnn([C@@H]2O[C@H](CO)[C@@H](O)[C@H]2O)c(=O)n1`, the outcome under setting [4] was “inactive; no positive results”.

As to `CC1CO1` (centres undefined), the Potency (TD50_Rat_Note: TD50 is harmonic mean of more than one positive test, greater than ten-fold variation among TD50 values for positive res, TargetSites_Rat_Female: mammary gland, nasal cavity, stomach) was 74.4 mg/kg/day.

As for `CCCCN(CCCC)N=O`, the Potency was 0.691 mg/kg/day.

As to `COc1cc(/C=C/C(=O)CC(=O)/C=C/c2ccc(O)c(OC)c2)ccc1O`, the outcome runs as follows: under setting [4], “inactive; no positive results”; under setting [1], “inactive; no positive results”.

Take `CNC(=S)N(C)C`: the Potency (TargetSites_Rat_Female: thyroid gland) was 25.8 mg/kg/day.

In the case of `C1CCCNCCC1`, the outcome under setting [1] was “inactive; no positive results”.

With `ClCC(Br)CBr` (centres undefined), the Potency (TD50_Rat_Note: TD50 is harmonic mean of more than one positive test, TargetSites_Rat_Female: adrenal gland, mammary gland, nasal cavity, oral cavity, stomach) was 0.259 mg/kg/day.

`C=CCCl`: the outcome (TD50_Rat_Note: only experiment is NCI/NTP bioassay inadequate, TargetSites_Rat_Female: NTP bioassay inadequate) is “ntp bioassay inadequate”.

Consider `NC(=O)N(CCF)N=O`, for which the Potency is 0.125 mg/kg/day.

For the compound `Cc1cc(C)nc(-c2ccc([N+](=O)[O-])o2)n1`, the Potency (TD50_Rat_Note: harmonic mean of TD50 includes a value for upper 99% confidence limit from study with 100% tumor incidence but no lifeta, TargetSites_Rat_Female: kidney, mammary gland, small intestine, stomach, vascular system) was 1.39 mg/kg/day.

Take `COc1ccc(C(Cl)=C(c2ccc(OC)cc2)c2ccc(OC)cc2)cc1`: the outcome under setting [1] was “inactive; no positive results”.

For the compound `S=C(NC1CCCCC1)NC1CCCCC1`, the outcome under setting [1] was “inactive; no positive results”.

As for `[N-]=[N+]=[N-]`, the outcome under setting [1] is “inactive; no positive results”.

In the case of `C=Cc1ccccc1`, the Potency (TargetSites_Rat_Female: mammary gland) was 23.3 mg/kg/day.

Turning to `S=C([S-])NCCNC(=S)[S-].[Zn+2]`, the outcome under setting [1] is “inactive; no positive results”. In addition, the Potency (TargetSites_Rat_BothSexes: all tumor bearing animals) was 255 mg/kg/day.

As for `O=NN1CCCC1c1cccnc1` (centres undefined), the Potency was 0.0957 mg/kg/day.

Turning to `Cc1cn([C@H]2C[C@H](N=[N+]=[N-])[C@@H](CO)O2)c(=O)[nH]c1=O`, the Potency (TargetSites_Rat_Female: vagina) is 11600 mg/kg/day.

Turning to `O=[N+]([O-])O`, the outcome under setting [1] was “inactive; no positive results”.

Take `CN(C)C(=S)SSC(=S)N(C)C`: under setting [1], the outcome is “inactive; no positive results”.

With `NCCc1ccc(O)c(O)c1`, the outcome under setting [4] is “inactive; no positive results”.

As to `CN(C)N=O`, for the setting “TD50_Rat_Note: TD50 is harmonic mean of more than one positive test, greater than ten-fold variation among TD50 values for positive res, TargetSites_Rat_Female: liver, vascular system”, the Potency was 0.0959 mg/kg/day.

Regarding `COc1cc(OC)c2c3c(c(=O)oc2c1)CCC3`, the outcome under setting [4] was “inactive; no positive results”.

As for `CCN(N=O)C(N)=O`, the Potency (TD50_Rat_Note: TD50 is harmonic mean of more than one positive test, TargetSites_Rat_Female: nervous system, small intestine) is 0.948 mg/kg/day.

In the case of `[Cl-].[Cl-].[Sn+2]`, the outcome under setting [1] is “inactive; no positive results”.

For `O=C(O)c1cc(=O)[nH]c(=O)[nH]1`, under setting [4], the outcome was “inactive; no positive results”.

On to `S=c1nc[nH]c2nc[nH]c12`, for which, under setting [1], the outcome was “inactive; no positive results”.

Turning to `C/C=C1/C[C@@H](C)[C@](O)(CO)C(=O)OCC2=CCN3CC[C@@H](OC1=O)[C@@H]23`, the Potency was 0.862 mg/kg/day.

In the case of `OCc1ccccc1`, the outcome under setting [1] is “inactive; no positive results”.

On to `CN(N=O)C(=O)c1ccccc1C(=O)N(C)N=O`, for which, under setting [4], the outcome is “inactive; no positive results”.

Regarding `Cc1cccc(C)c1`, for the setting “TD50_Rat_Note: TD50 is harmonic mean of more than one positive test, TargetSites_Rat_Female: oral cavity, Maltoni head cancers”, the Potency was 3110 mg/kg/day. In addition, the outcome under setting [1] is “inactive; no positive results”.

Take `Cc1ccc(N=C=O)cc1N=C=O`: the Potency (TD50_Rat_Note: TD50 is harmonic mean of more than one positive test, TargetSites_Rat_Female: liver, mammary gland, pancreas, subcutaneous tissue) is 33.7 mg/kg/day.

In the case of `CCN(Cc1cccc(S(=O)(=O)[O-])c1)c1ccc(C(=C2C=CC(=[N+](C)C)C=C2)c2ccc(N(CC)Cc3cccc(S(=O)(=O)O)c3)cc2)cc1`, the Potency (TD50_Rat_Note: TD50 is harmonic mean of more than one positive test, TargetSites_Rat_Female: mammary gland, skin) is 612 mg/kg/day.

For the compound `C=CCOC(=O)c1ccccc1C(=O)OCC=C`, the outcome under setting [1] was “inactive; no positive results”.

Turning to `O=NN1CCC[C@H]1C(=O)O`, the outcome under setting [1] was “inactive; no positive results”.

As to `FC(F)(F)CCl`, under “TD50_Rat_Note: TD50 is harmonic mean of more than one positive test, TargetSites_Rat_Female: uterus”, the Potency was 87.3 mg/kg/day.

For `C=O`, under “TD50_Rat_Note: TD50 is harmonic mean of more than one positive test, greater than ten-fold variation among TD50 values for positive res, TargetSites_Rat_Female: hematopoietic system, nasal cavity”, the Potency was 1.35 mg/kg/day.

With `ClC1=C(Cl)[C@]2(Cl)[C@@H]3[C@@H]4C[C@@H]([C@H]5O[C@@H]45)[C@@H]3[C@@]1(Cl)C2(Cl)Cl`, the outcome under setting [1] was “inactive; no positive results”.

As to `Nc1ccc([N+](=O)[O-])cc1N`, the outcome under setting [1] is “inactive; no positive results”.

Consider `Nc1ccc(Cc2ccc(N)c(Cl)c2)cc1Cl`, for which the Potency (TD50_Rat_Note: TD50 is harmonic mean of more than one positive test, TargetSites_Rat_Female: liver, lung, mammary gland) was 19.3 mg/kg/day. For the same compound, the outcome under setting [4] was “inactive; no positive results”.

Regarding `C1COCCO1`, under “TD50_Rat_Note: TD50 is harmonic mean of more than one positive test, greater than ten-fold variation among TD50 values for positive res, TargetSites_Rat_Female: liver, mammary gland, nasal cavity”, the Potency was 267 mg/kg/day.

As for `CC1(C)COC1=O`, the Potency under setting [3] was 211 mg/kg/day.

Source of the values: PubChem BioAssay AID1208 (EPA DSSTox, 2008).
